# In PMC5218480 (PLoS ONE, 2017):
# Test system: MV-4-11 cells
# Assay: Gene expression microarray analysis (Affymetrix PrimeView) and GSEA
# Type: cell-based, human
# Parameters: RFU PODN (11730768_x_at) / Fold change /veh PODN (11730768_x_at) / RFU LINC00158 (11744669_a_at) / Fold change /veh LINC00158 (11744669_a_at) / RFU DUSP10 (11751237_a_at) / Fold change /veh DUSP10 (11751237_a_at) / RFU ID3 (11757404_x_at) / Fold change /veh ID3 (11757404_x_at) / RFU PLEKHG5 (11737974_s_at) / Fold change /veh PLEKHG5 (11737974_s_at) / RFU LRRC4B (11730491_at) / Fold change /veh LRRC4B (11730491_at) / RFU GIMAP4 (11747438_a_at) / Fold change /veh GIMAP4 (11747438_a_at) / RFU KRT8 (11758183_x_at) / Fold change /veh KRT8 (11758183_x_at) / RFU CNN1 (11734310_a_at) / Fold change /veh CNN1 (11734310_a_at) / RFU VPS37D (11726825_at) / Fold change /veh VPS37D (11726825_at) / RFU C10orf10 (11716522_x_at) / Fold change /veh C10orf10 (11716522_x_at) / RFU KIR2DL2 /// KIR2DL4 /// KIR2DL5A /// KIR2DL5B /// KIR2DS1 /// KIR2DS2 /// KIR2DS3 /// KIR2DS4 /// KIR3DL3 /// KIR3DL3 /// KIR3DS1 (11738374_at) / Fold change /veh KIR2DL2 /// KIR2DL4 /// KIR2DL5A /// KIR2DL5B /// KIR2DS1 /// KIR2DS2 /// KIR2DS3 /// KIR2DS4 /// KIR3DL3 /// KIR3DL3 /// KIR3DS1 (11738374_at) / RFU C1QL1 (11718748_at) / Fold change /veh C1QL1 (11718748_at) / RFU TMPRSS4 (11747572_a_at) / Fold change /veh TMPRSS4 (11747572_a_at) / RFU HAMP (11756126_x_at) / Fold change /veh HAMP (11756126_x_at) / RFU RNFT2 (11725882_a_at) / Fold change /veh RNFT2 (11725882_a_at) / RFU NR4A2 (11747474_a_at) / Fold change /veh NR4A2 (11747474_a_at) / RFU ABCC12 (11746883_a_at) / Fold change /veh ABCC12 (11746883_a_at) / RFU TMEM136 (11760407_x_at) / Fold change /veh TMEM136 (11760407_x_at) / RFU CLDN22 /// WWC2 (11732394_at) / Fold change /veh CLDN22 /// WWC2 (11732394_at) / RFU HLA-DPB1 (11760878_x_at) / Fold change /veh HLA-DPB1 (11760878_x_at) / RFU SPINT1 (11716480_a_at) / Fold change /veh SPINT1 (11716480_a_at) / RFU GAP43 (11754022_s_at) / Fold change /veh GAP43 (11754022_s_at) / RFU A4GNT (11735810_at) / Fold change /veh A4GNT (11735810_at) / RFU PRB3 (11715151_x_at) / Fold change /veh PRB3 (11715151_x_at) / RFU TUBB4B (11761932_at) / Fold change /veh TUBB4B (11761932_at) / RFU CAPN14 (11732068_a_at) / Fold change /veh CAPN14 (11732068_a_at) / RFU TMCC2 (11721928_a_at) / Fold change /veh TMCC2 (11721928_a_at) / RFU IRGQ (11745062_a_at) / Fold change /veh IRGQ (11745062_a_at) / RFU FAM174B (11720279_a_at) / Fold change /veh FAM174B (11720279_a_at) / RFU TMPRSS4 (11748680_a_at) / Fold change /veh TMPRSS4 (11748680_a_at) / RFU FAM212B (11763350_a_at) / Fold change /veh FAM212B (11763350_a_at) / RFU PLEKHG5 (11743358_a_at) / Fold change /veh PLEKHG5 (11743358_a_at) / RFU ZSCAN30 (11745921_a_at) / Fold change /veh ZSCAN30 (11745921_a_at) / RFU CMKLR1 (11741424_a_at) / Fold change /veh CMKLR1 (11741424_a_at) / RFU LOC101060620 /// MAPK8IP1 (11723275_at) / Fold change /veh LOC101060620 /// MAPK8IP1 (11723275_at) / RFU SPTSSB (11747773_x_at) / Fold change /veh SPTSSB (11747773_x_at) / RFU PRSS12 (11739890_at) / Fold change /veh PRSS12 (11739890_at) / RFU BIN1 (11741810_x_at) / Fold change /veh BIN1 (11741810_x_at) / RFU WNT11 (11732464_a_at) / Fold change /veh WNT11 (11732464_a_at) / RFU C10orf10 (11716521_a_at) / Fold change /veh C10orf10 (11716521_a_at) / RFU C5orf56 (11738089_at) / Fold change /veh C5orf56 (11738089_at) / RFU CYB561 (11721691_x_at) / Fold change /veh CYB561 (11721691_x_at) / RFU ANKRD19P (11752326_a_at) / Fold change /veh ANKRD19P (11752326_a_at) / RFU OR2T12 /// OR2T33 /// OR2T8 (11738714_s_at) / Fold change /veh OR2T12 /// OR2T33 /// OR2T8 (11738714_s_at) / RFU VCAN (11748164_a_at) / Fold change /veh VCAN (11748164_a_at) / RFU JSRP1 (11732532_at) / Fold change /veh JSRP1 (11732532_at) / RFU KRTAP10-11 (11738290_x_at) / Fold change /veh KRTAP10-11 (11738290_x_at) / RFU MYO3A (11730013_a_at) / Fold change /veh MYO3A (11730013_a_at) / RFU EBF3 (11725865_a_at) / Fold change /veh EBF3 (11725865_a_at) / RFU CAMK2N1 (11719241_x_at) / Fold change /veh CAMK2N1 (11719241_x_at) / RFU C5orf56 (11738088_a_at) / Fold change /veh C5orf56 (11738088_a_at) / RFU OLFML3 (11715873_a_at) / Fold change /veh OLFML3 (11715873_a_at) / RFU LOC100653217 /// NTM (11731650_a_at) / Fold change /veh LOC100653217 /// NTM (11731650_a_at) / RFU MAPK11 (11762145_a_at) / Fold change /veh MAPK11 (11762145_a_at) / RFU FIZ1 (11724087_x_at) / Fold change /veh FIZ1 (11724087_x_at) / RFU OASL (11726364_x_at) / Fold change /veh OASL (11726364_x_at) / RFU SOX15 (11748057_x_at) / Fold change /veh SOX15 (11748057_x_at) / RFU CD79A (11719716_a_at) / Fold change /veh CD79A (11719716_a_at) / RFU HIST1H1D (11736915_at) / Fold change /veh HIST1H1D (11736915_at) / RFU CASKIN2 (11723855_a_at) / Fold change /veh CASKIN2 (11723855_a_at) / RFU LOC730098 (11760151_x_at) / Fold change /veh LOC730098 (11760151_x_at) / RFU OR4N2 (11742367_at) / Fold change /veh OR4N2 (11742367_at) / RFU PRRT2 (11749266_a_at) / Fold change /veh PRRT2 (11749266_a_at) / RFU SNX32 (11753110_a_at) / Fold change /veh SNX32 (11753110_a_at) / RFU CDHR5 (11726645_a_at) / Fold change /veh CDHR5 (11726645_a_at) / RFU RCAN1 (11760418_a_at) / Fold change /veh RCAN1 (11760418_a_at) / RFU FAM167A (11723789_a_at) / Fold change /veh FAM167A (11723789_a_at) / RFU FAM26E (11764081_at) / Fold change /veh FAM26E (11764081_at) / RFU ISYNA1 (11749810_s_at) / Fold change /veh ISYNA1 (11749810_s_at) / RFU ACY1 (11761880_at) / Fold change /veh ACY1 (11761880_at) / RFU 11764098_at / Fold change /veh 11764098_at / RFU SAMD14 (11745864_x_at) / Fold change /veh SAMD14 (11745864_x_at) / RFU NPB (11741838_a_at) / Fold change /veh NPB (11741838_a_at) / RFU TMPRSS6 (11731388_a_at) / Fold change /veh TMPRSS6 (11731388_a_at) / RFU KRTAP10-2 (11738614_at) / Fold change /veh KRTAP10-2 (11738614_at) / RFU ARHGAP8 /// PRR5-ARHGAP8 (11727945_x_at) / Fold change /veh ARHGAP8 /// PRR5-ARHGAP8 (11727945_x_at) / RFU KRTAP5-7 /// NADSYN1 (11734609_at) / Fold change /veh KRTAP5-7 /// NADSYN1 (11734609_at) / RFU RASL12 (11751679_a_at) / Fold change /veh RASL12 (11751679_a_at) / RFU CDKN2B (11736163_a_at) / Fold change /veh CDKN2B (11736163_a_at) / RFU PRF1 (11729649_at) / Fold change /veh PRF1 (11729649_at) / RFU, ZNF638 /// ZNF638-IT1 / Fold change vs veh, ZNF638 /// ZNF638-IT1 / RFU, PANK3 / Fold change vs veh, PANK3 / RFU, SH3YL1 / Fold change vs veh, SH3YL1 / RFU, ZEB2 / Fold change vs veh, ZEB2 / RFU, NRIP1 / Fold change vs veh, NRIP1 / RFU, PTTG1IP / Fold change vs veh, PTTG1IP / RFU, CAPN2 / Fold change vs veh, CAPN2 / RFU, MED14 / Fold change vs veh, MED14 / RFU, SNORA58 / Fold change vs veh, SNORA58 / RFU, C1orf63 / Fold change vs veh, C1orf63 / RFU, LRRFIP1 / Fold change vs veh, LRRFIP1 / RFU, NDUFAF7 / Fold change vs veh, NDUFAF7 / RFU, SLC12A2 / Fold change vs veh, SLC12A2 / RFU, IBTK / Fold change vs veh, IBTK / RFU, ESF1 / Fold change vs veh, ESF1 / Fold change vs veh, TMEM50B / RFU, TAOK1 / Fold change vs veh, TAOK1 / RFU, ACBD3 / Fold change vs veh, ACBD3 / RFU, TMA16 / Fold change vs veh, TMA16 / RFU, RWDD3 / Fold change vs veh, RWDD3 / RFU, BCAT1 / Fold change vs veh, BCAT1 / RFU, EDEM3 / Fold change vs veh, EDEM3 / RFU, TMEM33 / Fold change vs veh, TMEM33 / RFU, WDR75 / Fold change vs veh, WDR75 / RFU, AHCTF1 / Fold change vs veh, AHCTF1 / RFU, TFRC / Fold change vs veh, TFRC / RFU, ZDHHC17 / Fold change vs veh, ZDHHC17 / RFU, NOM1 / Fold change vs veh, NOM1 / RFU, ARL8B / Fold change vs veh, ARL8B / RFU, ZBTB11 / Fold change vs veh, ZBTB11 / RFU, TAMM41 / Fold change vs veh, TAMM41 / RFU, KIAA1704 /// LOC100996395 / Fold change vs veh, KIAA1704 /// LOC100996395 / RFU, ING1 / Fold change vs veh, ING1 / RFU, TRMT61B / Fold change vs veh, TRMT61B / RFU, FUBP3 / Fold change vs veh, FUBP3 / RFU, TP53 / Fold change vs veh, TP53 / RFU, TNKS2 / Fold change vs veh, TNKS2 / RFU, ZFP14 / Fold change vs veh, ZFP14 / RFU, ACTR2 / Fold change vs veh, ACTR2 / RFU, PPP3R1 / Fold change vs veh, PPP3R1 / RFU, PIK3R1 / Fold change vs veh, PIK3R1 / RFU, HNRNPA1 / Fold change vs veh, HNRNPA1 / RFU, RNF170 / Fold change vs veh, RNF170 / RFU, ZNF28 / Fold change vs veh, ZNF28 / RFU, RNGTT / Fold change vs veh, RNGTT / RFU, OGT / Fold change vs veh, OGT / RFU, BRD1 / Fold change vs veh, BRD1 / RFU, MARS / Fold change vs veh, MARS / RFU, ZNF655 / Fold change vs veh, ZNF655 / RFU, FAHD1 / Fold change vs veh, FAHD1 / RFU, BDP1 / Fold change vs veh, BDP1 / RFU, LRRCC1 / Fold change vs veh, LRRCC1 / RFU, ARID1A / Fold change vs veh, ARID1A / RFU, ZNF146 / Fold change vs veh, ZNF146 / RFU, ZNF330 / Fold change vs veh, ZNF330 / RFU, GPN3 / Fold change vs veh, GPN3 / RFU, C9orf123 / Fold change vs veh, C9orf123 / RFU, N4BP2L2 / Fold change vs veh, N4BP2L2 / RFU, ARFIP1 / Fold change vs veh, ARFIP1 / RFU, FAM179B / Fold change vs veh, FAM179B / RFU, BCL10 / Fold change vs veh, BCL10 / RFU, UHRF1BP1L / Fold change vs veh, UHRF1BP1L / RFU, BET1 / Fold change vs veh, BET1 / RFU, CNOT2 / Fold change vs veh, CNOT2 / RFU, ZNF268 / Fold change vs veh, ZNF268 / Fold change vs veh, ZNF507 / RFU, DGCR2 / Fold change vs veh, DGCR2 / RFU, WDSUB1 / Fold change vs veh, WDSUB1 / Fold change vs veh, HSP90B1 /// MIR3652 / RFU, ADSS / Fold change vs veh, ADSS / RFU, GK / Fold change vs veh, GK / RFU, ZNF148 / Fold change vs veh, ZNF148 / RFU, TAF9 / Fold change vs veh, TAF9 / RFU, SLC1A5 / Fold change vs veh, SLC1A5 / RFU, SLMO2 / Fold change vs veh, SLMO2 / RFU, ABCC4 / Fold change vs veh, ABCC4 / RFU, LOC101060439 /// RAP1B / Fold change vs veh, LOC101060439 /// RAP1B / RFU, RFX7 / Fold change vs veh, RFX7 / RFU, GTPBP10 / Fold change vs veh, GTPBP10 / RFU, CNEP1R1 / Fold change vs veh, CNEP1R1 / RFU, BIVM-ERCC5 /// ERCC5 / Fold change vs veh, BIVM-ERCC5 /// ERCC5 / RFU, ILF3 / Fold change vs veh, ILF3 / RFU 11762660_at / Fold change /veh 11762660_at / RFU VCAN (11757783_s_at) / Fold change /veh VCAN (11757783_s_at) / RFU DDX43 (11728927_at) / Fold change /veh DDX43 (11728927_at) / RFU KRT8 (11758188_x_at) / Fold change /veh KRT8 (11758188_x_at) / RFU NKD1 (11759106_at) / Fold change /veh NKD1 (11759106_at) / RFU SRD5A1 (11742802_a_at) / Fold change /veh SRD5A1 (11742802_a_at) / RFU TPSAB1 /// TPSB2 (11721975_s_at) / Fold change /veh TPSAB1 /// TPSB2 (11721975_s_at) / RFU GSTM3 (11746129_a_at) / Fold change /veh GSTM3 (11746129_a_at) / RFU IL23R (11737362_x_at) / Fold change /veh IL23R (11737362_x_at) / RFU TMEM51 (11727254_a_at) / Fold change /veh TMEM51 (11727254_a_at) / RFU PIWIL2 (11732686_x_at) / Fold change /veh PIWIL2 (11732686_x_at) / RFU ORM1 (11744905_x_at) / Fold change /veh ORM1 (11744905_x_at) / RFU CCDC152 (11743942_at) / Fold change /veh CCDC152 (11743942_at) / RFU ECM1 (11717891_a_at) / Fold change /veh ECM1 (11717891_a_at) / RFU IL23R (11748794_a_at) / Fold change /veh IL23R (11748794_a_at) / RFU TNFAIP8L3 (11732012_x_at) / Fold change /veh TNFAIP8L3 (11732012_x_at) / RFU MBOAT4 (11741988_at) / Fold change /veh MBOAT4 (11741988_at) / RFU 11764193_at / Fold change /veh 11764193_at / RFU TMEM53 (11763286_at) / Fold change /veh TMEM53 (11763286_at) / RFU MAGEB2 (11727129_at) / Fold change /veh MAGEB2 (11727129_at) / RFU TMEM200A (11744735_a_at) / Fold change /veh TMEM200A (11744735_a_at) / RFU CCDC152 (11751479_a_at) / Fold change /veh CCDC152 (11751479_a_at) / RFU FAM211A (11726209_a_at) / Fold change /veh FAM211A (11726209_a_at) / RFU RGS16 (11746705_a_at) / Fold change /veh RGS16 (11746705_a_at) / RFU VCAN (11755009_s_at) / Fold change /veh VCAN (11755009_s_at) / RFU RHOB (11743442_s_at) / Fold change /veh RHOB (11743442_s_at) / RFU RGS16 (11720943_a_at) / Fold change /veh RGS16 (11720943_a_at) / RFU RGS16 (11720944_at) / Fold change /veh RGS16 (11720944_at) / RFU, VPS4B / Fold change vs veh, VPS4B / RFU, CREB1 / Fold change vs veh, CREB1 / RFU, DNAJC13 / Fold change vs veh, DNAJC13 / RFU, GNAQ / Fold change vs veh, GNAQ / RFU, CDK5R1 / Fold change vs veh, CDK5R1 / RFU, ZRANB3 / Fold change vs veh, ZRANB3 / RFU, CUL4A / Fold change vs veh, CUL4A / RFU, CCNY / Fold change vs veh, CCNY / RFU, UFL1 / Fold change vs veh, UFL1 / RFU, COG3 / Fold change vs veh, COG3 / RFU, DIAPH2 / Fold change vs veh, DIAPH2 / RFU, SKA2 / Fold change vs veh, SKA2 / RFU, AFF3 / Fold change vs veh, AFF3 / RFU, LMF1 / Fold change vs veh, LMF1 / RFU, IPO11 / Fold change vs veh, IPO11 / RFU, DFFB / Fold change vs veh, DFFB / RFU, FOXP1 / Fold change vs veh, FOXP1 / RFU, CARD8 / Fold change vs veh, CARD8 / RFU, STRN3 / Fold change vs veh, STRN3 / RFU, ADK / Fold change vs veh, ADK / RFU, RASSF2 / Fold change vs veh, RASSF2 / RFU, WIPF1 / Fold change vs veh, WIPF1 / RFU, LARP1B / Fold change vs veh, LARP1B / RFU, RASA1 / Fold change vs veh, RASA1 / RFU, RB1 / Fold change vs veh, RB1 / RFU, PPFIA1 / Fold change vs veh, PPFIA1 / RFU, MAT2A / Fold change vs veh, MAT2A / RFU, CCT5 / Fold change vs veh, CCT5 / RFU, WDR92 / Fold change vs veh, WDR92 / RFU, CUX1 / Fold change vs veh, CUX1 / RFU, TTC7A / Fold change vs veh, TTC7A / RFU, TMEM135 / Fold change vs veh, TMEM135 / RFU, DEPTOR / Fold change vs veh, DEPTOR / RFU, CPM / Fold change vs veh, CPM / RFU, DNAJB6 / Fold change vs veh, DNAJB6 / RFU, CACNA2D3 / Fold change vs veh, CACNA2D3 / RFU, DTX4 / Fold change vs veh, DTX4 / RFU, TFCP2 / Fold change vs veh, TFCP2 / RFU, GMCL1 /// GMCL1P1 / Fold change vs veh, GMCL1 /// GMCL1P1 / RFU, AEBP2 / Fold change vs veh, AEBP2 / RFU, SNHG1 /// SNORD22 /// SNORD25 /// SNORD26 /// SNORD27 /// SNORD28 /// SNORD29 /// SNORD31 / Fold change vs veh, SNHG1 /// SNORD22 /// SNORD25 /// SNORD26 /// SNORD27 /// SNORD28 /// SNORD29 /// SNORD31 / Fold change (Aza/veh), C12orf56 (ProbeSet 11735607_a_at) / Fold change (ACY-1035/veh), C12orf56 (ProbeSet 11735607_a_at) / Fold change (Aza/veh), FGFR1OP (ProbeSet 11751329_s_at) / Fold change (ACY-1035/veh), FGFR1OP (ProbeSet 11751329_s_at) / Fold change (Aza/veh), VPS36 (ProbeSet 11739960_a_at) / Fold change (ACY-1035/veh), VPS36 (ProbeSet 11739960_a_at) / RFU SYPL1 (11715823_x_at) / Fold change /veh SYPL1 (11715823_x_at) / RFU IGFBP7 (11715501_s_at) / Fold change /veh IGFBP7 (11715501_s_at) / RFU REEP3 (11722064_at) / Fold change /veh REEP3 (11722064_at) / RFU IGLL1 (11728026_x_at) / Fold change /veh IGLL1 (11728026_x_at): dose or concentration left out as unconfirmed
# Conditions: ProbeSet 11725141_a_at; LIST B
smiles,measurement,value
Nc1ncn([C@@H]2O[C@H](CO)[C@@H](O)[C@H]2O)c(=O)n1 [azacitidine],"Fold change vs veh, FUBP3",0.84
